In article PMC8533333, “Melatonin Analogues Potently Inhibit MAO-B and Protect PC12 Cells against Oxidative Stress” (Antioxidants, 2021):

What was measured:
[1] = test system: PC12 cells; assay: Cytotoxicity in PC12 cells (MTT assay); format: cell-based, rat; conditions: 10 and 30 μM, 24 h
Experimental: (§1) Control cells were incubated in an equivalent volume of DMSO to a final concentration of 0.3%. Neuroprotective effects of the tested compounds on the toxicity induced by 6-OHDA or rotenone in PC12 cells were evaluated as described previously with slight modifications. In brief, cells were pre-treated with the tested compounds or rasagiline at the indicated concentrations for 4 h. Next, they were exposed to 6-OHDA (50 μM) or rotenone (1 μM) for 24 h. In another set of experiments, the influence of HO-1 inhibitor, ZnPP, on the neuroprotective effects of the tested compounds against 6-OHDA-induced oxidative damage was investigated as previously reported. Briefly, the cells were pre-treated with the tested compounds for 4 h and then incubated with 0.2 µM of ZnPP for 30 min. Subsequently, 6-OHDA was added at a final concentration of 50 µM and incubated for 24 h.
(§2) After the desired treatment, cell viability was determined by MTT assay as described previously. Briefly, MTT was added to the cells at the final concentration of 0.5 mg/mL, which was followed by incubation for 3 h at 37 °C. […] The absorbance of the dissolved solution was measured at 550 nm using a microplate reader (SpectraMax M2^e, Molecular Devices, Sunnyvale, CA, USA). The cell viability was presented as the percentage of the absorbance measured in the vehicle-treated control cells.
Cell viabilities were measured by MTT assay.

[2] = test system: LPO in rat brain homogenates; assay: Lipid peroxidation (LPO) induced by Fe2+ and L-ascorbic acid in rat forebrain homogenates; format: biochemical; conditions: 100 μM; Fe2+ 10 µM and L-ascorbic acid 100 µM
Experimental: The effects of the investigated compounds on the LPO levels in rat forebrain homogenates were evaluated as previously described. Sprague–Dawley (SD) rats were obtained from Daehan Biolink (Chungbuk, Korea) and maintained in the animal facility with controlled temperature (22 ± 2 °C) and relative humidity (40–60%). All the experimental steps and protocols of the animal experiments were approved by the Institutional Animal Ethical Committee of Dongguk University (Approval Number: IACUC-2019-001-2). To initiate LPO reaction, 3–4 mg protein/mL diluent of SD rat forebrain homogenates in 20 mM Tris-HCl buffer (pH 7.4) and several concentrations of the tested compounds dissolved in DMSO were added to a reaction mixture with 10 µM Fe^2+ and 100 µM L-ascorbic acid and incubated for 60 min at 37 °C. After halting the reaction by adding 28% w/v trichloroacetic acid and 1% w/v TBA in succession, the solution was heated for 15 min at 100 °C, which was followed by centrifugation at 3000 rpm for 10 min at 4 °C to separate the precipitates. […] The percentage of inhibition was calculated by the following formula:Inhibition (%) = 100 × (1 − Abssample/Abscontrol) (Abscontrol, the absorbance of control without tested compounds; Abssample, the absorbance of sample with tested compounds). […]

[3] = target: T1, Human recombinant MAO-B (hMAO-B) (Homo sapiens, UniProt P27338); assay: MAO-B enzyme assay (Amplex Red, resorufin fluorescence); format: biochemical; conditions: for Selectivity Index (SI): IC50 (MAO-A)/IC50 (MAO-B); for IC50: five doses 10-0.001 µM, triplicate; for % Inhibition of MAO-B at 10 µM / inhibition at 10 µM: single dose 10 µM
T1 construct: purchased Sigma Aldrich; host or cells: insect cells
T1 sequence (P27338 1-520): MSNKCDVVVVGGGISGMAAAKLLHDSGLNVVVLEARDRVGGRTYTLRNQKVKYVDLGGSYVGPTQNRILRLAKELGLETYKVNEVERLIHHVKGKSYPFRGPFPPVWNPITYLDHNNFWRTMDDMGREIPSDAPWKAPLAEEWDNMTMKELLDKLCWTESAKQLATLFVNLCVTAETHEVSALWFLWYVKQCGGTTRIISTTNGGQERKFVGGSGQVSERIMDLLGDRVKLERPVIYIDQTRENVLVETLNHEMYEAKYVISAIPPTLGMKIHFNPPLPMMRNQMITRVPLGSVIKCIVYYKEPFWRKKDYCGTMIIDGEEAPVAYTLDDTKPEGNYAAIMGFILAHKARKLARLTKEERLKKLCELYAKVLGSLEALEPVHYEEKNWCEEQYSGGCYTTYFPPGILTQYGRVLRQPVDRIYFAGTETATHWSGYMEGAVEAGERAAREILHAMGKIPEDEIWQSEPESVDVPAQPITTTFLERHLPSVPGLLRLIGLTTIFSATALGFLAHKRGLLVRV
Experimental: Biological evaluation of the synthesized melatonin derivatives over both MAO-A and MAO-B was performed as reported previously. A detailed description of the protocol is in the Supplementary Materials.
First, the synthesized melatonin analogues (3a–x) were biologically evaluated over an MAO-B recombinant enzyme. The experiment was performed using Amplex® Red reagent technology. This technology offers quantitative enzyme activity sensitive detection, a wider dynamic range, and fluorescence emission outside the range of compound autofluorescence (if any). The Amplex® Red reagent is a colorless substrate that reacts with H2O2 in a 1:1 stoichiometry to produce a highly fluorescent resorufin; therefore, the induced inhibitory effects of the melatonin analogues over MAO-B were examined via spectrophotometry where the fluorescence rate of resorufin dye formation was measured.
Accordingly, compounds 3n, 3r, and 3u–w were further tested to determine their IC50 values over MAO-B in triplicate from the dose–response inhibition curves using Sigma-Plot software 13.0.
6. Materials and methods of monoamine oxidase (MAO) enzyme assay
The inhibitory activity of MAO-A, B enzyme of the compounds was evaluated based on previously described method. The MAO activity was measured in relative fluorescence units (RFU) evoked by peroxidase-catalyzed oxidation of Amplex Red® to resorufin, in which H2O2 generated by MAO reaction was used as the […]. Human recombinant MAO-A (hMAO-A) and MAO-B (hMAO-B) enzyme expressed in insect cells were obtained from Sigma Aldrich. The 2 μL of test compound in DMSO (final concentration: 1 nM – 10 μM) was treated with 98 μL of hMAO enzyme solution in 50 mM sodium phosphate buffer (pH 7.4, final protein amounts: ~1.25 μg protein/well for MAO-A and ~2.5 μg protein/well for MAO -B) on 96-well black plate and incubated for 15 min at 37 °C. Then 100 μL of reaction working solution which is mixed solution of 400 μM Amplex Red® (Cayman, final concentration: 200 μM), 2 U/mL horseradish peroxidase ( Sigma-Aldrich, final concentration: 1 U/mL) and 2 mM substrate ( p-tyramine for MAO -A, benzylamine for MAO -B, Sigma-Aldrich, final concentration: 1 mM) in 50 mM sodium phosphate buffer (pH 7.4) were added and incubated for 20 min at 37 °C in the dark. The fluorescent intensity was quantified using a microplate reader (SpectraMax®i3, Molecular Device) with an excitation at 545 nm and an emission at 590 nm. The 50% inhibitory concentrations (IC50) of compounds were determined as the mean ± S.E.M. in triplicate from the dose-response inhibition curves using SigmaPlot® 13.0. […]

[4] = test system: PC12 cells; conditions: ZnPP 0.2 µM, 6-OHDA 50 µM 24 h
Experimental: as §1, §2

SMILES | cytotoxic effects on PC12 cells [1] | inhibition of lipid peroxide formation (LPO) [2] | Selectivity Index (SI) [3] | IC50 [3] | % Inhibition of MAO-B at 10 µM [3] | inhibition at 10 µM [3] | effect of ZnPP on protective effects against 6-OHDA-induced toxicity [4]
O=C(Nc1ccc2[nH]ccc2c1)c1cccc(Cl)c1 [3n, 3-Chloro-N-(1H-indol-5-yl)benzamide] | did not show any significant cytotoxic effects | 23.5 ± 1.7% | >71 | 1410 nM | 76.79 ± 0.27% | > 70% | completely abolished
O=C(Nc1ccc2[nH]ccc2c1)c1cccc(Br)c1 [3r, 3-Bromo-N-(1H-indol-5-yl)benzamide] | did not show any significant cytotoxic effects | 44.4 ± 2.2% | >109 | 910 nM | 87.00 ± 0.03% | > 70% | completely abolished
